We go through three compounds from patent publication US11725020B2, “Prodrugs of a CDK inhibitor for treating cancers” (priority 2019, dated 2023).

“Also recorded” adds a separate entry of the source. Bounds are passed on as bounds.

In one data set the test system is non-CDK kinases. Particulars: with the exception of GSK3β; cited from earlier work.
The nature of data set [1]: Toxicity study in mice: toxicokinetics, plasma AT7519 concentration. The settings on record: for plasma AT7519 exposures compared with AT7519 dosing: i.v., compound 11 0.062 mmol/kg, compound 12 0.124 mmol/kg, AT7519 0.031 mmol/kg. Format: in vivo, Male mice (BABL/c). The protocol:
(§1) Male mice (BABL/c) of 20 to 22 g were maintained under standard conditions and randomized into groups. […] Doses were calculated and expressed in mmol/kg-body weight, and drug tolerability, pharmacokinetics, and body weight effect were assessed.
Blood samples were collected at 2 min, 10 min, 1 h, and 4 h. Concentration of T7519 was analyzed in each sample using LC-MS/MS method. The results are summarized in Table 3, and the concentration-time curves are illustrated in FIG. 1.

Data set [2] concerns HCT116 colon cancer xenograft. Particulars: 9.1 mg/kg twice daily, early-stage and advanced-stage s.c. tumors; cited from earlier work.
Data set [3] can be described thus: Toxicity study in mice: body weight after a single i.v. dose. Type of data set: in vivo, Male mice (BABL/c). The protocol: as §1
Clinical observations were made in the following schedule: continuous observation in the first four hours after dosing, and then twice daily, at one week time, and at day 14. The parameters for observation included animal's physical and mental behaviors, autonomous activity, hair, gland secretion, feces, and death. Body temperature was taken at pre-dosing, and on days 3, 5, 7, and 10 post-dosing.
The body weights of the animals are summarized in Table 4, and the trend lines for animal body weight changes in each group are given in FIG. 2. The body weight was average weight of all the animals in the group from a single measurement.

The subject of the next data set is SW620. Particulars: read-out: antiproliferative IC50; cited from earlier work.
For a further data set, the system named is MCF-7. Particulars: read-out: antiproliferative IC50; cited from earlier work.
The nature of data set [4]: Toxicokinetic study in rats: dose exploration. Type of data set: in vivo, Male SD (Sprague Dawley) rats. The settings on record: rat, i.v., one animal. The protocol: (§2) Male SD (Sprague Dawley) rats of body weight 220 to 240 g were maintained under standard conditions and randomized into three groups. On day 0 (initial day), all the animals were given one of the three compounds intravenously. Dose was calculated in mmol/kg.
(a) Dose exploration: One animal from each group was given the preset high dose of each compound.

A further data set concerns MM.1R. Particulars: 48 hours, read-out: cytotoxicity IC50; cited from earlier work.
A short description of data set [5]: Toxicity study in mice: tolerability after i.v. administration. Type of data set: in vivo. Particulars: for toxicity compared with AT7519: 2-fold (11) and 4-fold (12) molar-equivalents of the AT7519 threshold level. The protocol:
as §1

The test system of another data set is human MM xenograft. Particulars: 15 mg/kg; cited from earlier work.
For data set [6], the system named is HT29 colon cancer xenograft. The settings on record: 9.1 mg/kg twice daily, early-stage and advanced-stage s.c. tumors; cited from earlier work.
The nature of data set [7]: Toxicokinetic study in rats: TK study, plasma AT7519 concentration. Format: in vivo, Male SD (Sprague Dawley) rats. Particulars: male, Sprague-Dawley, iv; rat plasma, I.V., 0.039 mmol/kg. The protocol: as §2
(b) TK study: The remaining animals were randomized into three groups, with 6 in each group. […] TK analysis was conducted as follows: Blood samples were collected at time points of 2 min, 10 min, 1 h, 2 h, and 6 h into sample tube (heparinized).

In a further data set the test system is MM.1S. The settings on record: 48 hours, read-out: cytotoxicity IC50; cited from earlier work.
The conditions of data set [8]: 32.4 mg/m^2; cited from earlier work.
For data set [9], the system named is peripheral blood mononuclear cells (PBMNC). The settings on record: cited from earlier work.
For data set [10] the following is noted: human, in vivo; cited from earlier work.
A further data set relates to U266. The settings on record: U266, 48 hours; read-out: cytotoxicity IC50; cited from earlier work.
[11] abbreviates: male, BALB/c, mouse, plasma, iv, I.V., 0.031 mmol/kg.
Setting [12] is: single i.v. dose 0.031 mmol/kg on day 0, group average.
[13] abbreviates: single i.v. dose 0.062 mmol/kg on day 0, group average.
The mark [14] stands for this setting: single i.v. dose 0.124 mmol/kg on day 0, group average.

For orientation: IC50 means the point on the concentration scale where inhibition reaches its midpoint.

Regarding `O=C(NC1CCNCC1)c1n[nH]cc1NC(=O)c1c(Cl)cccc1Cl` [AT7519, 4-(2,6-Dichlorobenzamido)-N-(4-piperidinyl)-1H-pyrazole-3-carboxamide], the “activity against all non-CDK kinases” value in the data set with non-CDK kinases was “inactive”. In [1] (setting [11]), this compound had a concentration at 2 min of 10200 ng/mL, a concentration at 10 min of 1840 ng/mL, a concentration at 1 h of 489 ng/mL and a concentration at 4 h of 47 ng/mL. The effect on tumors entry in data set [2] was “tumor regression”. In data set [3] (setting [12]), the “Body weight (g) Day 0” value amounted to 19.44 g, the “Body weight (g) Day 1” value was 19.53 g, the “Body weight (g) Day 2” value is listed as 19.45 g and the “Body weight (g) Day 4” value was found to be 20.94 g. In addition, in [3] (setting [12]), the “Body weight (g) Day 7” value is recorded as 20.83 g and the “Body weight (g) Day 10” value was determined as 20.63 g. In the data set on SW620, the IC50 was 940 nM. For the same compound, the IC50 in the data set on MCF-7 is 40 nM. Moreover, the Animal death result in [4] (0.049 mmol/kg) is listed as “already at their lethal doses; also recorded: Died immediately post-dosing”. Besides, in the data set on MM.1R, the IC50 was more than 2000 nM. Besides, the threshold lethal dose in [5] (male, BALB/c, mouse, in vivo, iv) is listed as 0.031 mmol/kg. Further, the “Death rate (%)” value in [5] (mice, i.v., 0.031 mmol/kg) was determined as 20%. In data set [5] (mice, i.v., 0.031 mmol/kg, 20 animals in group), this compound displayed a Number of deaths of 4. Also, in [5] (mice, i.v., 0.039 mmol/kg), the “Death rate (%)” value was found to be 100%. Moreover, in the data set on human MM xenograft, the median overall survival entry is listed as “prolong the median overall survival” and the tumor growth result is given as “inhibit tumor growth”. For the same compound, the effect on tumors result in data set [6] was “tumor regression”. In data set [7], the concentration at 2 min came out at 19100 ng/mL, the concentration at 10 min was 4600 ng/mL, the concentration at 1 h was found to be 814 ng/mL and the concentration at 4 h amounted to 554 ng/mL. In data set [7], the concentration at 6 h came to 148 ng/mL. The half-inhibitory concentration (IC50) in the data set with MM.1S is 500 nM. In data set [8], the “DLT among the initial three patients” value is on record as “one patient experienced DLT (grade 3 fatigue)”; the “DLT in two additional patients” value is “both of whom experienced DLTs (febrile neutropenia and grade 3 hypokalemia and mucositis)”. Moreover, the “cytotoxicity in PBMNC” value in [9] was “does not induce cytotoxicity”. Moreover, in [10], the “AEs of CTCAE grade 1 severity” value is reported as 46.7%, the “AEs of CTCAE grade 2 severity” value was 37.8%, the “patients with at least one treatment-related AE” value is recorded as 82.1% and the “treatment-emergent AE anorexia” value is given as 39.3%. In addition, in data set [10], the “treatment-emergent AE constipation” value is reported as 32.1%, the “treatment-emergent AE fatigue” value was 42.9%, the “treatment-emergent AE hypotension” value is 25.0% and the “treatment-emergent AE nausea” value is reported as 50.0%. Moreover, in data set [10], the “treatment-emergent AE peripheral edema” value is listed as 25.0%, the “treatment-emergent AE pyrexia” value is recorded as 25.0% and the “treatment-emergent AE vomiting” value is listed as 39.3%. In addition, the half-maximal inhibitory concentration (IC50) with U266 is 500 nM.
In the case of `O=C(NC1CCNCC1)c1nn(COP(=O)([O-])[O-])cc1NC(=O)c1c(Cl)cccc1Cl.[Na+].[Na+]` [Compound 11], the “plasma AT7519 exposures compared with AT7519 dosing” value in data set [1] is “much higher”. Besides, in [3] (setting [13]), the “Body weight (g) Day 0” value came to 19.16 g, the “Body weight (g) Day 1” value is reported as 18.58 g, the “Body weight (g) Day 2” value was 18.83 g and the “Body weight (g) Day 4” value is 19.95 g. For the same compound, in data set [3] (setting [13]), the “Body weight (g) Day 7” value is 20.16 g and the “Body weight (g) Day 10” value is 20.52 g. For the same compound, the Animal death entry in [4] (0.055 mmol/kg, listed as compound 11, phosphate disodium Salt) was “already at their lethal doses”. The Animal death result in data set [4] (0.055 mmol/kg, phosphate disodium Salt) is “Died at 2 min post-dosing”. Further, in [5] (mice, i.v., 0.062 mmol/kg), the “Death rate (%)” value is given as 0%. The “toxicity compared with AT7519” value in [5] (mice, i.v.) is listed as “much less toxic than AT7519”.
Take `COC(=O)[C@H](C)NP(=O)(Oc1ccccc1)N1CCC(NC(=O)c2n[nH]cc2NC(=O)c2c(Cl)cccc2Cl)CC1` (stereo partly drawn) [Compound 12, N-((4-(4-(2,6-dichlorobenzamido)-1H-pyrazole-3-carboxamido)-1-piperidinyl)(phenoxy)phosphinyl)-L-alanine methyl Ester]: the “plasma AT7519 exposures compared with AT7519 dosing” value in data set [1] is recorded as “much higher”. In [3] (setting [14]), the “Body weight (g) Day 0” value came to 19.75 g, the “Body weight (g) Day 1” value came out at 18.70 g, the “Body weight (g) Day 2” value came to 19.17 g and the “Body weight (g) Day 4” value is reported as 19.95 g. Further, in data set [3] (setting [14]), the “Body weight (g) Day 7” value is on record as 20.79 g and the “Body weight (g) Day 10” value turned out to be 21.30 g. The Animal death result in [4] (0.125 mmol/kg) is recorded as “Behaved normally”. In addition, in [4] (0.125 mmol/kg, listed as compound 12), the Animal death result is “did not induce the animal death”. In [5] (mice, i.v., 0.124 mmol/kg), the “Death rate (%)” value is 0%. Moreover, in data set [5] (mice, i.v.), the “toxicity compared with AT7519” value is on record as “much less toxic than AT7519”.
